Measured values reported in patent US20090098050A1, “CALCIUM BINDING PEPTIDES” (THE REGENTS OF THE UNVERSITY OF CALIFORNIA, priority 2005, published 2009).

What was measured:
[1] = Preferential binding to carious lesions in teeth (CLSM); design: species or system human; settings: labeled peptide, settings optimized per sample
Description: FIG. 9: Fluorescence micrographs showing specific binding of DSS peptides and variants to carious lesions in teeth. Adult human teeth were exposed to 12.5 uM 5(6)-carboxyfluorescein-labeled peptide without demineralization, washed extensively, and imaged by CLSM. Microscope and camera settings were optimized separately for each sample. […] White traces on the right side of each panel identify the position of the tooth surface, while arrows indicate the position of the stained lesion.
Sections of human teeth containing obvious carious lesions, which consist of demineralized enamel, were polished and exposed to 5(6)-carboxyfluorescein-labeled DSS peptides and variants using the protocol described in Example 2. The sections were washed extensively and imaged by CLSM using blue laser illumination (λ=488 nm) and a FITC emission filter, with microscope and camera settings adjusted for each sample to optimize the signal detected from each peptide. The images were examined to identify the relative levels of peptide binding in healthy versus carious tissue. […] Given their ability to remineralize at sites of enamel degradation (Example 6), they can also be used to initiate remineralization at sites of enamel degradation such as caries or injury sites without causing inappropriate nucleation on healthy tissue surfaces.

[2] = Binding of fluorescein-labeled peptides to hydroxyapatite nanocrystals (Langmuir isotherm); settings: fluorescein-labeled peptide 0-100 μM, 0.3 mg hydroxyapatite, ten minutes, Langmuir fit
Description: FIG. 1: Binding affinities of DSS and DSS variant peptides for hydroxyapatite and tooth surfaces. A-C. Fluorescein-labeled peptides at concentrations ranging from 0-100 μM were incubated with 0.3 mg of hydroxyapatite nanocrystals (specific surface area=100 m^2/g) for ten minutes, followed by removal of the hydroxyapatite by centrifugation. The amount of peptide in the mixture before and after hydroxyapatite removal was determined by Abs480. Isotherms were plotted and fit to the Langmuir equation to extract values for KA, a constant reflecting the affinity of the peptide for the hydroxyapatite surface. D. Sagitally sectioned human teeth were incubated with 12.5 μM 5(6) carboxyfluorescein-labeled 6DSS peptide for ten minutes, followed by rinsing. Peptide binding to tooth surfaces was visualized by Confocal Laser Scanning Microscopy (CLSM) using blue laser illumination (λA=488 nm) and a FITC emission filter. Left side, light colored region: dentin. Right side, dark colored region: enamel.
Four DSS peptides containing two (2DSS, SEQ ID NO:12), four (4DSS, SEQ ID NO:13), six (6DSS, SEQ ID NO:14), or eight(8DSS, SEQ ID NO:15) Asp-Ser-Ser (DSS) repeats were generated. Peptides were labeled with fluorescein, and various concentrations of the labeled peptides (0-100 μM) were mixed with a fixed amount (0.3 mg) of hydroxyapatite nanocrystals having a specific surface area of 100 m^2/g (Berkeley Advanced Biomaterials, Inc.). Samples were incubated for ten minutes, followed by removal of the hydroxyapatite by centrifugation. The amount of peptide in the mixture was measured both before and after hydroxyapatite removal by spectroscopic absorbance at 480 nm (the peak absorbance of the fluorescein label). The amount of peptide bound was calculated by comparing the ratio of the final (Af) and initial (Ai) absorbances to the initial concentration (P0) [Pbound=[…]]. Plots were generated illustrating the amount of peptide bound per m^2 of hydroxyapatite surface area versus concentration of unbound peptide at equilibrium. The resulting isotherms were fit to the Langmuir isotherm (x/m=(KANMaxCeq)/(1+KACeq)) (Calis 1995), which describes the binding activity of a molecule in terms of a combination of binding affinity (KA) and avidity (NMax). KA represents the affinity constant of the peptide for the hydroxyapatite surface. In this equation, x/m represents the molar amount of peptide bound per unit of hydroxyapatite surface area, NMax represents the maximum surface concentration (mol/m^2), and Ceq represents the molar concentration of unbound peptide at equilibrium. The Langmuir isotherm describes the binding of molecules to surfaces with the conditions that 1) all binding sites have the same affinity for the peptide, and 2) the peptide will form a monolayer on the surface but cannot accumulate to higher levels. The excellent fit of the Langmuir isotherm to the experimental data validates these conditions, and these affinity constants were used for comparisons between peptides.

## 8DSS: peptide containing eight Asp-Ser-Ser (DSS) repeats, SEQ ID NO:15 (DSSDSSDSSDSSDSSDSSDSSDSS; calcium binding peptide containing eight DSS repeats, 8DSS)
[1]
  Specificity of binding to carious lesions versus surrounding healthy enamel: highly specific binding to carious lesions
  Strength of staining of carious lesions: exceptionally strong staining of carious lesions
[2]
  KA, affinity constant of the peptide for the hydroxyapatite surface: 300,000 M^−1
